Results as given in ChEMBL document CHEMBL1201862, “PubChem BioAssay data set” (2004).
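Compound exposure: 48 hours, 5 concentrations, 96-well plates. GI50 = concentration required for 50% inhibition of growth.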 Calls of active or inactive are those of the source. No stated cut-off is given here; in the data, active = GI50 up to about 1.1 µM and inactive = higher.

Legend:
Assay in all cases: growth of human tumour cells (NCI), 48 h
[1] = system: SW-620
[2] = system: NCI-H226
[3] = system: KM12
[4] = system: IGROV-1
[5] = system: NCI-H460
[6] = system: UACC-257
[7] = system: SNB-19
[8] = system: OVCAR-5
[9] = system: OVCAR-8
[10] = system: SR
[11] = system: SF-295
[12] = system: K562
[13] = system: MDA-N
[14] = system: SK-MEL-2
[15] = system: MOLT-4
[16] = system: PC-3
[17] = system: HT-29
[18] = system: Hs-578T
[19] = system: MDA-MB-435
[20] = system: SK-MEL-28

SMILES	GI50 [1]	GI50 [2]	GI50 [3]	GI50 [4]	GI50 [5]	GI50 [6]	GI50 [7]	GI50 [8]	GI50 [9]	GI50 [10]	GI50 [11]	GI50 [12]	GI50 [13]	GI50 [14]	GI50 [15]	GI50 [16]	GI50 [17]	GI50 [18]	GI50 [19]	GI50 [20]
O=C1C=C(Nc2nc(O)cc(C(=O)O)n2)c2ccccc2C1=O	> 100 µM (inactive)	> 100 µM (inactive)	> 100 µM (inactive)	> 100 µM (inactive)	> 100 µM (inactive)	> 100 µM (inactive)	> 100 µM (inactive)	> 100 µM (inactive)	> 100 µM (inactive)	> 100 µM (inactive)	> 100 µM (inactive)	> 100 µM (inactive)	> 100 µM (inactive)	> 100 µM (inactive)	> 100 µM (inactive)	> 100 µM (inactive)	> 100 µM (inactive)	> 100 µM (inactive)	37.8 µM (inactive)	> 100 µM (inactive)
O=C(/C=C/c1ccccc1)c1cc(Br)ccc1O	21 µM (inactive)	12.9 µM (inactive)	12 µM (inactive)	11.5 µM (inactive)	17.9 µM (inactive)	14 µM (inactive)	17.1 µM (inactive)	22.3 µM (inactive)	16 µM (inactive)	2.09 µM (inactive)	16.9 µM (inactive)	4.28 µM (inactive)	15 µM (inactive)	21.4 µM (inactive)	15.2 µM (inactive)	17.1 µM (inactive)	16.6 µM (inactive)	21.2 µM (inactive)	15.6 µM (inactive)	15.5 µM (inactive)
CCOC(=O)CCc1cccc2c1oc1c(CCNC(=O)OCC3c4ccccc4-c4ccccc43)cccc12	> 100 µM (inactive)	86.7 µM (inactive)	> 100 µM (inactive)	21.3 µM (inactive)	> 100 µM (inactive)	41.9 µM (inactive)	19.9 µM (inactive)	> 100 µM (inactive)	24.9 µM (inactive)	22.5 µM (inactive)	19.6 µM (inactive)	> 100 µM (inactive)	> 100 µM (inactive)	76.6 µM (inactive)	> 100 µM (inactive)	35.2 µM (inactive)		4.17 µM (inactive)	> 100 µM (inactive)	> 100 µM (inactive)
O=c1[nH]nc(Cc2ccccc2)n1Nc1ccccc1	> 100 µM (inactive)	> 100 µM (inactive)	> 100 µM (inactive)	> 100 µM (inactive)	> 100 µM (inactive)	> 100 µM (inactive)		> 100 µM (inactive)	> 100 µM (inactive)	> 100 µM (inactive)	> 100 µM (inactive)	> 100 µM (inactive)	> 100 µM (inactive)	48.4 µM (inactive)	> 100 µM (inactive)	> 100 µM (inactive)	> 100 µM (inactive)	> 100 µM (inactive)	> 100 µM (inactive)	> 100 µM (inactive)
O=C(N/N=C/C=C/c1ccccc1)c1ccccc1Nc1ccccc1C(=O)N/N=C/C=C/c1ccccc1	> 100 µM (inactive)	> 100 µM (inactive)	> 100 µM (inactive)	> 100 µM (inactive)	26.5 µM (inactive)	> 100 µM (inactive)	11.9 µM (inactive)	> 100 µM (inactive)	> 100 µM (inactive)	12.8 µM (inactive)	27.5 µM (inactive)	> 100 µM (inactive)	> 100 µM (inactive)	59.4 µM (inactive)	1.92 µM (inactive)	> 100 µM (inactive)	> 100 µM (inactive)	41.1 µM (inactive)	> 100 µM (inactive)	> 100 µM (inactive)
O=C1CC(=O)NC(NN2C(=O)/C(=C/c3ccccc3)N=C2c2ccccc2)=N1	> 100 µM (inactive)	> 100 µM (inactive)	> 100 µM (inactive)	> 100 µM (inactive)	> 100 µM (inactive)	> 100 µM (inactive)		> 100 µM (inactive)	> 100 µM (inactive)	> 100 µM (inactive)	> 100 µM (inactive)	> 100 µM (inactive)	> 100 µM (inactive)	> 100 µM (inactive)	> 100 µM (inactive)	> 100 µM (inactive)	> 100 µM (inactive)	> 100 µM (inactive)	> 100 µM (inactive)	> 100 µM (inactive)
O=C(C(=O)n1ccc2ccccc21)n1ccc2ccccc21	> 100 µM (inactive)	> 100 µM (inactive)		2.12 µM (inactive)	36.6 µM (inactive)	> 100 µM (inactive)	54.6 µM (inactive)	> 100 µM (inactive)	59.7 µM (inactive)	40.1 µM (inactive)	37.6 µM (inactive)	71.4 µM (inactive)	> 100 µM (inactive)	> 100 µM (inactive)	> 100 µM (inactive)	> 100 µM (inactive)	> 100 µM (inactive)	27.5 µM (inactive)	> 100 µM (inactive)	> 100 µM (inactive)
CC(=O)OCC1OC(c2c(OC(C)=O)cc(C)c3c(=O)cc(/C(C(C)=O)=C(\C)O)oc23)C(OC(C)=O)C(OC(C)=O)C1OC(C)=O (stereo not drawn)	> 100 µM (inactive)	> 100 µM (inactive)	> 100 µM (inactive)	> 100 µM (inactive)	> 100 µM (inactive)	> 100 µM (inactive)	> 100 µM (inactive)	> 100 µM (inactive)	> 100 µM (inactive)	> 100 µM (inactive)	> 100 µM (inactive)	> 100 µM (inactive)	> 100 µM (inactive)	> 100 µM (inactive)	> 100 µM (inactive)	> 100 µM (inactive)	> 100 µM (inactive)	84.9 µM (inactive)	> 100 µM (inactive)	> 100 µM (inactive)
O=C1/C(=C/c2ccc(Cl)cc2)N=C(c2ccccc2)N1c1nc2ccccc2s1	64 µM (inactive)	49.7 µM (inactive)	61.9 µM (inactive)	34.4 µM (inactive)	57.4 µM (inactive)	35.6 µM (inactive)		> 100 µM (inactive)	59.4 µM (inactive)	0.0537 µM (active)	40.4 µM (inactive)	26.4 µM (inactive)	39 µM (inactive)	28.3 µM (inactive)	0.548 µM (active)	29.9 µM (inactive)	64.1 µM (inactive)	20 µM (inactive)	53 µM (inactive)	52.6 µM (inactive)
O=C(O)CCC/N=C(\C(=N\CCCC(=O)O)c1ccccc1)c1ccccc1	> 100 µM (inactive)	> 100 µM (inactive)	> 100 µM (inactive)	> 100 µM (inactive)	> 100 µM (inactive)	> 100 µM (inactive)	> 100 µM (inactive)	> 100 µM (inactive)	> 100 µM (inactive)	> 100 µM (inactive)	> 100 µM (inactive)	> 100 µM (inactive)	> 100 µM (inactive)	> 100 µM (inactive)	> 100 µM (inactive)	> 100 µM (inactive)		> 100 µM (inactive)	> 100 µM (inactive)	> 100 µM (inactive)
S=C1CC(c2ccccc2)Sc2ccccc2N1 (stereo not drawn)		> 100 µM (inactive)	95.3 µM (inactive)	> 100 µM (inactive)	63.1 µM (inactive)	> 100 µM (inactive)	35.6 µM (inactive)	76.6 µM (inactive)	> 100 µM (inactive)	> 100 µM (inactive)	> 100 µM (inactive)	> 100 µM (inactive)	54 µM (inactive)		5.22 µM (inactive)	6.85 µM (inactive)	> 100 µM (inactive)	25.5 µM (inactive)	61.1 µM (inactive)	51.4 µM (inactive)
Cc1nc2c(O)cc3c4c(=O)n(C)c(=O)n(C)c4n(Cc4ccccc4)c3c2nc1C	19.5 µM (inactive)	21.6 µM (inactive)	21.2 µM (inactive)		45.8 µM (inactive)	18.4 µM (inactive)	18.6 µM (inactive)	22.6 µM (inactive)	18.3 µM (inactive)	24.4 µM (inactive)	50.5 µM (inactive)	34.1 µM (inactive)	18.4 µM (inactive)	18 µM (inactive)	24.5 µM (inactive)	16.7 µM (inactive)	15.8 µM (inactive)	26.5 µM (inactive)	17.4 µM (inactive)	14.3 µM (inactive)
O=[N+]([O-])C(=C(N1CCCCC1)N1CCCCC1)/C(Cl)=C(\Cl)Br	15.6 µM (inactive)	20.8 µM (inactive)	23.1 µM (inactive)	25.8 µM (inactive)	21 µM (inactive)	23.8 µM (inactive)	26.4 µM (inactive)		16.4 µM (inactive)	5.93 µM (inactive)	54.5 µM (inactive)	18.3 µM (inactive)	29.2 µM (inactive)		18.7 µM (inactive)	22.9 µM (inactive)	29.7 µM (inactive)	0.871 µM (active)	20.5 µM (inactive)	19.5 µM (inactive)
C/C1=C\[C@H](C)C[C@H](C)OC(=O)C[C@H](c2ccc(O)cc2)NC(=O)[C@@H](Cc2c(Br)[nH]c3ccccc23)N(C)C(=O)[C@H](C)NC(=O)[C@@H](C)C1 [JASPAMIDE]	0.152 µM (active)	0.245 µM (active)	0.264 µM (active)	0.114 µM (active)	0.233 µM (active)	0.11 µM (active)	0.213 µM (active)	0.457 µM (active)	0.381 µM (active)	0.0578 µM (active)	0.259 µM (active)	0.667 µM (active)	0.0834 µM (active)		0.682 µM (active)	0.0667 µM (active)	0.173 µM (active)	0.0611 µM (active)	0.063 µM (active)	0.124 µM (active)
